This note sets out measurements from patent US5929110A, “Fatty acid analogs and prodrugs” (G. D. Searle & Co., priority 1998, dated 1999).

Where only a bound is given, the exact number is not on record here.

The subject of the test is HIV-1. Put plainly: inhibition of HIV-1; reduction of cytopathogenic effect in virus-infected Leu-3a-positive CEM cells (MTT assay). In kind it is cell-based, strain HTVL-IIIB. The conditions noted are these: Human immunodeficiency virus 1, CCRF-CEM, multiplicity of infection 0.1, MTT read on 7th to 9th day post-infection. The procedure:
Inhibitory activity against HIV-1 was shown by tests involving plating of susceptible human host cells which are syncytium-sensitive with and without virus in microculture plates, adding various concentrations of the test compound, incubating the plates for 7 to 9 days (during which time infected, non-drug treated control cells are largely or totally destroyed by the virus), and then determining the remaining number of viable cells with a colorometric endpoint.
Various illustrative compounds synthesized above were tested for inhibition of HIV-1 in a test which measured reduction of cytopathogenic effect in virus-infected syncytium-sensitive Leu-3a-positive CEM cells grown in tissue culture as follows:
Tissue culture plates were incubated at 37° C. in a humidified, 5% CO2 atmosphere and observed microscopically for toxicity and/or cytopathogenic effect (CPE). At 1 hour prior to infection each test article was prepared from the frozen stock, and a 20 μl volume of each dilution (prepared as a 10× concentration) was added to the appropriate wells of both infected and uninfected cells.
Assays were done in 96-well tissue culture plates. CEM cells were treated with polybrene at a concentration of 2 μg/ml, and an 80 μl volume of cells (1×10^4 cells) was dispensed into each well. A 100 μl volume of each test article dilution (prepared as a 2× concentration) was added to 5 wells of cells, and the cells were incubated at 37° C. for 1 hour. A frozen culture of HIV-1, strain HTVL-IIIB, was diluted in culture medium to a concentration of 5×10^4 TCID50 per ml, and a 20 μl volume (containing 10^3 TCID50 of virus) was added to 3 of the wells for each test article concentration. […] A 20 μl volume of normal culture medium was added to the remaining wells to allow evaluation of cytotoxicity. Each plate contained 6 wells of untreated, uninfected, cell control samples and 6 wells of untreated, infected, virus control samples.
On the 7th to 9th day post-infection, the cells in each well were resuspended and a 100 μl sample of each cell suspension was removed for use in an MTT assay. A 20 μl volume of a 5 mg/ml solution of 3-(4,5-dimethylthiazol-2-yl)-2,5-diphenyltetrazolium bromide (MTT) was added to each 100 μl cell suspension, and the cells were incubated at 37° C. in 5% CO2 for 4 hours. […] A 100 μl volume of a solution of 10% sodium dodecyl sulfate in 0.01N hydrochloric acid was added to each sample, and the samples were incubated overnight. The absorbance at 590 nm was determined for each sample using a Molecular Devices Vmax microplate reader. This assay detects drug-induced suppression of viral CPE, as well as drug cytotoxicity, by measuring the generation of MTT-formazan by surviving cells.
For orientation: Protection from cytopathic effect is a common read-out in antiviral testing.

`COCCCCCCCOCCCC(=O)O` [Example 5, 4-[(7-Methoxyheptyl)oxy]butanoic Acid] came in with an EC50 of more than 430 µM. In the case of `COCCCCCCCCCCCC(C)=O` [Example 89, 13-Methoxy-2-tridecanone], the EC50 was more than 430 µM. For the compound `CCOC(=O)C(C)CNC(=O)CCCCCCCCCCCOC` (centres unmarked) [Example 36, Ethyl 2-[[(12-methoxy-1-oxododecyl)amino]-2-methyl]propanoate], the EC50 was 5.8 µM.

In the case of `CCCCCCCCCCOCCC#N` [Example 6, 3-(Decyloxy)propanenitrile], the EC50 was more than 470 µM. Take `CCOC(=O)[C@H](C)NC(=O)CCCCCCCCCCCOC` [Example 31, N-(12-Methoxy-1-oxododecyl)-L-alanine, Ethyl ester]: the EC50 came to 24 µM. Consider `CCOC(=O)[C@@H](Cc1c[nH]c2ccccc12)NC(=O)CCCCCCCCCCCOC` [Example 74, N-(12-Methoxy-1-oxododecyl)-D-tryptophan, Ethyl ester], for which the EC50 was more than 221 µM. `COCCCCCCCCCCCC(=O)OC` [Example 8, Methyl 12-Methoxydodecanoate] had an EC50 of 6.1 µM. In turn, `CCOC(=O)CN(C)C(=O)CCCCCCCCCCCOC` [Example 26, N-(12-Methoxy-1-oxododecyl)-N-methylglycine, Ethyl ester] had an EC50 of more than 300 µM. To `CCCCCCCCCCOCCC(=O)NCC(=O)OCC` [Example 29, N-[3-(Decyloxy)-1-oxopropyl]glycine, Ethyl ester] belongs more than 315 µM. As to `CCCCCCCCCCOCCC(=O)N[C@@H](Cc1ccccc1)C(=O)OCC` [Example 55, N-(3-(Decycloxy)-1-oxopropyl]-L-phenylalanine, Ethyl ester], the EC50 is more than 240 µM. Regarding `CCCCCCCCCCOCCC(=O)NCc1ccccc1` [Example 20, 3-(Decyloxy)-N-(phenylmethyl)propanamide], the EC50 was more than 310 µM. In turn, `CCOC(=O)[C@H](C)CNC(=O)CCCCCCCCCCCOC` [Example 39, Ethyl 3-[[(12-methoxy-1-oxododecyl)amino]-2R-methyl]propanoate] came in with an EC50 of 6.7 µM. Compound `COCCCCCCCCCCCC(=O)NCC(=O)O` [Example 81] showed a 50% effective concentration (EC50) of 27.5 µM. To `CCOC(=O)[C@H](CCC(=O)OCc1ccccc1)NC(=O)CCCCCCCCCCCOC` [Example 59, N-(12-methoxy-1-oxododecyl)-L glutamic acid, 1-Ethyl 5-(Phenylmethyl) ester] belongs 7.3 µM; to `CCOC(=O)[C@H](NC(=O)CCCCCCCCCCCOC)[C@H](C)CC` [Example 48, N-(12-Methoxy-1-oxododecyl)-D-isoleucine, Ethyl ester], more than 265 µM. To `CCOC(=O)[C@@H](C)NC(=O)CCCCCCCCCCCOC` [Example 34, N-(12-Methoxy-1-oxododecyl)-D-alanine, Ethyl ester] belongs more than 300 µM; to `COCCCCCCCCCCCC#N` [Example 84, 12-Methoxydodecanenitrile], more than 470 µM. In the case of `CCn1nnnc1CCCCCCCCCCCOC` [Example 86A, 1-Ethyl-5-(11-methoxyundecyl)-1H-tetrazole], the EC50 was more than 350 µM. As to `CCOC(=O)CCCCCCCCCCCOC` [Example 9, Ethyl 12-Methoxydodecanoate], the EC50 was determined as 16.6 µM. With `CCOC(=O)[C@H](NC(=O)CCCCCCCCCCCOC)[C@H](C)OCc1ccccc1` [Example 80, N-(12-methoxy-1-oxododecyl)-O-(phenylmethyl)-D-threonine, Ethyl ester], the EC50 was more than 225 µM.

Compound `CCOC(=O)CN(CC(=O)OCC)C(=O)CCCCCCCCCCCOC` [Example 25, N-(2-Ethoxy-2-oxoethyl)-N-(12-methoxy-1-oxododecyl)glycine, Ethyl ester] registered an EC50 of more than 240 µM. The result for `CCOC(=O)CNC(=O)CNC(=O)CCCCCCCCCCCOC` [Example 24, N-[N-(12-Methoxy-1-oxododecyl)glycyl]glycine, Ethyl ester] reads more than 260 µM. With `CCOC(=O)C(CNC(=O)CCCCCCCCCCCOC)Cc1ccccc1` (stereo not drawn) [Example 42, Ethyl α-[[(12-Methoxy-1-oxododecyl)amino]methyl]benzenepropanoate], the midpoint of the response, the EC50, lay at 6.4 µM. Regarding `CCOC(=O)[C@@H](Cc1ccccc1)NC(=O)CCCCCCCCCCCOC` [Example 52, N-(12-Methoxy-1-oxododecyl)-D-phenylalanine, Ethyl ester], the EC50 is more than 245 µM.

In turn, `CCCCCCCCCCOCCC(=O)N(CC)CC` [Example 19, 3-(Decyloxy)-N,N-diethylpropanamide] had an EC50 of more than 350 µM. `COCCCCCCCCCCCC(=O)NCC(=O)OC(C)(C)C` [Example 23] gave an EC50 of 9.3 µM.

In turn, `CCN(CC)C(=O)CCCCCCCCCCCOC` [Example 15, N,N-Diethyl-12-methoxydodecanamide] yielded a concentration giving a half-maximal response (EC50) of more than 350 µM. For the compound `CCOC(=O)CN(C(=O)CCCCCCCCCCCOC)c1ccccc1` [Example 28, N-(12-Methoxy-1-oxododecyl)-N-phenylglycine, Ethyl ester], the EC50 is more than 250 µM. On to `COCCCCCCCCCCCC(=O)O` [Example 1, 12-Methoxydodecanoic Acid], for which the midpoint of the response, the EC50, lay at 4.3 µM. This lies in the single-digit micromolar range. As for `CCOC(=O)[C@@H](CCC(=O)OCc1ccccc1)NC(=O)CCCCCCCCCCCOC` [Example 62, N-(12-methoxy-1-oxododecyl)-D-glutamic acid, 1-Ethyl 5-(Phenylmethyl) ester], the EC50 was more than 205 µM. The result for `COCCCCCCCCCCCc1nnn(Cc2ccccc2)n1` [Example 87B, 5-(11-Methoxyundecyl)-2-(phenylmethyl)-2H-tetrazole] reads more than 290 µM; that for `CCCCCCCCCCOCCC(=O)O` [Example 7, 3-(Decyloxy)propanoic Acid], 18.7 µM; that for `CCOC(=O)[C@@H](NC(=O)CCCCCCCCCCCOC)[C@@H](C)OCc1ccccc1` [Example 77, N-(12-methoxy-1-oxododecyl)-O-(phenylmethyl)-L-threonine, Ethyl ester], 11.8 µM. Compound `COCCCCCCCCCCCc1nnn[nH]1` [Example 85, 5-(11-Methoxyundecyl)-1H-tetrazole] showed a 50% effective concentration (EC50) of more than 390 µM. `COCCCCCCCCCCCC(N)=S` [Example 13, 12-Methoxydodecanethioamide] came in with an EC50 of more than 400 µM. To `CCOC(=O)CCNC(=O)CCCCCCCCCCCOC` [Example 30, N-(12-Methoxy-1-oxododecyl)-β-alanine, Ethyl ester] belongs 6.1 µM; to `CCOC(=O)[C@H](Cc1c[nH]c2ccccc12)NC(=O)CCCCCCCCCCCOC` [Example 71, N-(12-Methoxy-1-oxododecyl)-L-tryptophan, Ethyl ester], 18 µM; to `COCCCCCCCCCCCC(=O)N[C@H](Cc1ccccc1)C(=O)O` [Example 83, N-(12-Methoxy-1-oxododecyl)-D-phenylalanine], more than 265 µM. As to `CCOC(=O)[C@H](CCCCNC(=O)OCc1ccccc1Cl)NC(=O)CCCCCCCCCCCOC` [Example 65, N6-[[(2-Chlorophenyl)methoxy]carbonyl]-N2-(12-methoxy-1oxododecyl)-L-lysine, Ethyl ester], the EC50 worked out at 7.4 µM. `CCOC(=O)CNC(=O)CCCCCCCCCCCOC` [Example 21, N-(12-Methoxy-1-oxododecyl)-glycine, Ethyl ester] registered an EC50 of 8.6 µM. In the case of `COCCCCCCCCCCCCO` [Example 88, 12-Methoxydodecanol], the EC50 is more than 450 µM. As for `COCCCCCCCCCCCC(N)=O` [Example 12, 12-Methoxydodecanamide], the EC50 amounted to 192 µM. Compound `CCn1nnc(CCCCCCCCCCCOC)n1` [Example 86B, 2-Ethyl-5-(11-methoxyundecyl)-2H-tetrazole] showed an EC50 of more than 350 µM. `COCCCCCCCCCCCC(=O)N[C@H](Cc1ccccc1)C(=O)OC(C)(C)C` [Example 54, N-(12-Methoxy-1-oxododecyl)-D-phenylalanine, 1,1-Dimethylethyl ester] returned a 50% effective concentration (EC50) of more than 230 µM. In turn, `COCCCCCCCCCCCc1nnnn1Cc1ccccc1` [Example 87A, 5-(11-Methoxyundecyl)-1-(phenylmethyl)-1H-tetrazole] gave an EC50 of more than 290 µM.

Consider `COCCCCCCCCCCCC(=O)N[C@@H](Cc1ccccc1)C(=O)O` [Example 82, N-(12-Methoxy-1-oxododecyl)-L-phenylalanine], for which the EC50 worked out at 13 µM.

As for `COCCCCCCCCCCCC(=O)NCCc1ccccc1` [Example 16, 12-Methoxy-N-(2-phenylethyl) dodecanamide], it took 4.5 µM to reach a half-maximal effect (EC50).

What is called EC50 is the midpoint of the concentration-response curve. Higher therefore signals a less potent agent.
